Laboratory results taken from patent US20120165319A1, “INHIBITORS OF INTERLEUKIN-1 BETA CONVERTING ENZYME” (VERTEX PHARMACEUTICALS INCORPORATED, priority 1995, published 2012).
Like-named read-outs stand apart in the source and are kept apart here.

How the values were obtained:
[1] = system: IL-1β production, LPS-challenged mice; assay: In vivo acute assay for efficacy as anti-inflammatory agent: LPS-induced IL-1β production in mice; design: species or system mouse; details: for inhibition at 50 mg/kg: Mus musculus, po, read-out: percent inhibition of IL-1β production; for inhibition at 50 mg/kg / percent inhibition of IL-1β production: LPS challenged mice, compound PO, 50 mg/kg; for Inhibition (%) of IL-1β production in LPS-challenged mice: oral, dosed at time of LPS challenge
Procedure: In Vivo Acute Assay for Efficacy as Anti-Inflammatory Agent
LPS-Induced IL-1β Production.
Efficacy of 214e and 217e was evaluated in CD1 mice (n=6 per condition) challenged with LPS (20 mg/kg IP). […] Blood was collected seven hours after LPS challenge. Serum IL-1β levels were measure by ELISA. […] Similar results were obtained in a second experiment. […] However, a clear dose response was not apparent.
Compounds 214e and 217e (50 mg/kg) were also administered by oral gavage to assess absorption.
The efficacy of analogs of 214e were also evaluated in LPS challenged mice after IP administration (FIG. 9) and PO administration (FIG. 10).
[…] The protocol is described in Example 7.

[2] = system: IL-1β, human whole blood; assay: Whole blood assay for IL-1β production; type: cell-based; details: Table 17, read-out: Whole human blood IC50
In short: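 Human whole blood collected on Na2EDTA was treated with serially diluted compound in saline and then stimulated with LPS at 5.0 ng/ml final, for 16-18 h at 30 °C, in duplicate or triplicate. Plasma IL-1β was measured by ELISA at 1:200 dilution.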

[3] = system: IL-1β, human peripheral blood mononuclear cells (PBMC); assay: PBMC cell assay: IL-1β assay with human PBMC or enriched adherent mononuclear cells, LPS-stimulated; type: cell-based; details: Homo sapiens, PBMC, Table 17
In short: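 Buffy-coat human PBMC at 6×10^6 cells/ml, or adherent monocytes enriched by 1 h adherence (2.5−3.0×10^5 cells/well), are given 5–6 compound dilutions bracketing the ICE Ki (final DMSO 0.1%) plus LPS at a final 5 ng/ml. They are incubated 16–18 hr at 37 °C, 5% CO2, and supernatant mature IL-1β is measured by ELISA, with duplicate cultures and duplicate ELISAs.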

[4] = biological target: T1, ICE (Homo sapiens, UniProt P29466); assay: Enzyme assay with UV-visible substrate (visible ICE assay, Succinyl-Tyr-Val-Ala-Asp-pNitroanilide); type: biochemical; details: Table 17
T1 sequence (P29466 120-297 limits assumed): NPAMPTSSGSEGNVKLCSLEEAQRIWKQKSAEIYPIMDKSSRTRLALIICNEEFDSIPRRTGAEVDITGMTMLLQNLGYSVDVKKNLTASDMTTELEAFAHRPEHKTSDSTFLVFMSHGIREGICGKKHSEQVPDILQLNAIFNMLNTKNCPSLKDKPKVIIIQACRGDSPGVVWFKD
T1 sequence (P29466 317-404 limits assumed): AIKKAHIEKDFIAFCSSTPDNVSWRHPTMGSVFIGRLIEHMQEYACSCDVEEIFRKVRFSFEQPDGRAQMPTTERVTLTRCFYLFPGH
In short: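 ICE preincubated with inhibitor in DMSO for 15 min at room temperature, then Suc-Tyr-Val-Ala-Asp-pNA added. pNA release read at 405-603 nm for 20 min at 37 °C, rate from linear fit in mOD/min. Ki and inhibition mode from fits of rates at varying inhibitor concentrations to standard kinetic equations.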

[5] = 0 h, administered 0 h relative to time of LPS challenge
[6] = 2 h, administered −2 h relative to time of LPS challenge
[7] = administered 0 h relative to time of LPS challenge
[8] = administered −2 h relative to time of LPS challenge

| SMILES | IC50 [3] [nM] | Ki [4] [nM] | IC50 ([2]; Homo sapiens) [nM] | other results |
| --- | --- | --- | --- | --- |
| O=C(CN1C(=O)[C@@H](NC(=O)c2ccccc2)CN(C(=O)CO)c2ccccc21)N[C@H]1CC(=O)OC1OCc1ccccc1 (mixture of isomers) [Compound 695a, (3S)-2-Oxo-3-benzoylamino-5-hydroxyacetyl-N-[(2RS,3S)-benzyloxy-5-oxo-tetrahydrofuran-3-yl]-2,3,4,5-tetrahydro-1H-1,5-benzodiazepine-1-acetamide] | – | – | – | inhibition at 50 mg/kg [1, 5]: 78%; inhibition at 50 mg/kg [1, 6]: 49% |
| CN(C)c1ccc(C(=O)N[C@H]2CCC(=O)N3CCC[C@@H](C(=O)N[C@H]4CC(=O)OC4OCc4ccccc4)N3C2=O)cc1 (mixture of isomers) [Compound 213f, [1S,9S(2RS,3S)]9-[(4-Dimethylaminobenzoyl)amino]-6,10-dioxo-1,2,3,4,7,8,9,10-octahydro-N-(2-Benzyloxy-5-oxotetrahydrofuran-3-yl)-6H-pyridazino[1,2-a][1,2]diazepine-1-carboxamide] | – | – | – | IC50 [2]: 3000 nM; percent inhibition of IL-1β production [1, 7]: 8%; percent inhibition of IL-1β production [1, 8]: (−4) % |
| Nc1ccc(C(=O)N[C@H]2CCC(=O)N3CCC[C@@H](C(=O)N[C@H]4CC(=O)OC4OCc4ccccc4)N3C2=O)cc1Cl (mixture of isomers) [Compound 213h, [1S,9S (2RS,3S)]9-[(3-Chloro-4-aminobenzoyl)amino]-6,10-dioxo-1,2,3,4,7,8,9,10-octahydro-N-(2-Benzyloxy-5-oxotetrahydrofuran-3-yl)-6H-pyridazino[1,2-a][1,2]diazepine-1-carboxamide] | – | – | – | IC50 [2]: 1500 nM; percent inhibition of IL-1β production [1, 7]: 53%; percent inhibition of IL-1β production [1, 8]: 9% |
| CC(=O)N1C[C@H](NC(=O)c2cc(Cl)c(O)c(Cl)c2)C(=O)N(CC(=O)N[C@H]2CC(=O)OC2OCc2ccccc2)c2ccccc21 (mixture of isomers) [Compound 655, (3S)-2-Oxo-3-(3,5-dichloro-4-hydroxybenzoyl)amino-5-acetyl-N-[(2RS,3S)-benzyloxy-5-oxo-tetrahydrofuran-3-yl]-2,3,4,5-tetrahydro-1H-1,5-benzodiazepine-1-acetamide] | – | – | – | percent inhibition of IL-1β production [1, 7]: 68%; percent inhibition of IL-1β production [1, 8]: 0% |
| CCO[C@H]1OC(=O)C[C@@H]1NC(=O)[C@@H]1CCCN2C(=O)CC[C@H](NC(=O)c3nccc4ccccc34)C(=O)N12 [Compound 412e, [1S,9S(2S,3S)]N-(2-Ethoxy-5-oxotetrahydrofuran-3-yl)-6,10-dioxo-9-(isoquinolin-1-oylamino)-1,2,3,4,7,8,9,10-octahydro-6-H-pyridazino[1,2-a][1,2]diazepine-1-carboxamide] | – | – | – | Inhibition (%) of IL-1β production in LPS-challenged mice ([1]; 10 mg/kg dose): 5%; Inhibition (%) of IL-1β production in LPS-challenged mice ([1]; 25 mg/kg dose): 17%; Inhibition (%) of IL-1β production in LPS-challenged mice ([1]; 50 mg/kg dose): 61% |
| COc1ccccc1C(=O)C(=O)N[C@H]1CN(C(C)=O)c2ccccc2N(CC(=O)N[C@H](C=O)CC(=O)O)C1=O [Compound 705] | 2300 | 5 | 3200 | – |
| COc1cccc(OC)c1C(=O)C(=O)N[C@H]1CN(C(C)=O)c2ccccc2N(CC(=O)N[C@H](C=O)CC(=O)O)C1=O [Compound 706] | 2400 | 5 | 5800 | – |
| CC(=O)N1C[C@H](NC(=O)C(=O)c2c(C)cc(C)cc2C)C(=O)N(CC(=O)N[C@H](C=O)CC(=O)O)c2ccccc21 [Compound 709] | 2100 | 10 | 14000 | – |
| O=C[C@H](CC(=O)O)NC(=O)CN1C(=O)[C@@H](NC(=O)c2ccc3c(c2)OCO3)CN(C(=O)CO)c2ccccc21 [Compound 910] | 3400 | 10 | 3800 | – |
| CC(=O)Nc1ccc(C(=O)N[C@H]2CN(C(=O)CO)c3ccccc3N(CC(=O)N[C@H](C=O)CC(=O)O)C2=O)cc1 [Compound 911] | 3500 | 9 | 1900 | – |
| COc1ccc(C(=O)N[C@H]2CN(C(=O)CO)c3ccccc3N(CC(=O)N[C@H](C=O)CC(=O)O)C2=O)cc1 [Compound 912] | 4200 | 10 | 3800 | – |
| CN(C)c1ccc(C(=O)N[C@H]2CN(C(=O)CO)c3ccccc3N(CC(=O)N[C@H](C=O)CC(=O)O)C2=O)cc1 [Compound 913] | 2400 | 4.5 | 7000 | – |
| CC(=O)Nc1ccc(C(=O)N[C@H]2CN(C(=O)CO)c3ccccc3N(CC(=O)N[C@H](C=O)CC(=O)O)C2=O)cc1Cl [Compound 914] | 2600 | 5.2 | 2800 | – |
| CC(=O)Nc1c(Cl)cc(C(=O)N[C@H]2CN(C(=O)CO)c3ccccc3N(CC(=O)N[C@H](C=O)CC(=O)O)C2=O)cc1Cl [Compound 915] | > 8000 | 11.5 | 1900 | – |
| O=C[C@H](CC(=O)O)NC(=O)CN1C(=O)[C@@H](NC(=O)c2cc3ccccc3[nH]2)CN(C(=O)CO)c2ccccc21 [Compound 919] | 2000 | 4 | 4300 | – |
| O=C[C@H](CC(=O)O)NC(=O)CN1C(=O)[C@@H](NC(=O)c2ccc3[nH]cnc3c2)CN(C(=O)CO)c2ccccc21 [Compound 920] | 2100 | 16 | 3000 | – |
| COc1ccccc1C(=O)C(=O)N[C@H]1CN(C(=O)CO)c2ccccc2N(CC(=O)N[C@H](C=O)CC(=O)O)C1=O [Compound 921] | 1800 | 8.5 | 3000 | – |
| O=C[C@H](CC(=O)O)NC(=O)[C@@H]1CCCN2C(=O)CCN(NC(=O)CCc3ccccc3)C(=O)N12 [Compound 1105] | 3500 | 250 | 3000 | – |
| O=C[C@H](CC(=O)O)NC(=O)[C@@H]1CCCN2C(=O)CCN(NC(=O)C(=O)c3ccccc3)C(=O)N12 [Compound 1106] | 4000 | 75 | 1700 | – |
| O=C[C@H](CC(=O)O)NC(=O)[C@@H]1CCCN2C(=O)CCN(NC(=O)C(=O)c3c[nH]c4ccccc34)C(=O)N12 [Compound 1108] | 1400 | 22 | 2600 | – |
| COc1ccccc1C(=O)C(=O)NN1CCC(=O)N2CCC[C@@H](C(=O)N[C@H](C=O)CC(=O)O)N2C1=O [Compound 1111] | 6050 | 18 | 4400 | – |
| COc1cccc(OC)c1C(=O)C(=O)NN1CCC(=O)N2CCC[C@@H](C(=O)N[C@H](C=O)CC(=O)O)N2C1=O [Compound 1112] | 1800 | 3.5 | 2300 | – |
| Cc1cc(C)c(C(=O)C(=O)NN2CCC(=O)N3CCC[C@@H](C(=O)N[C@H](C=O)CC(=O)O)N3C2=O)c(C)c1 [Compound 1117] | 1700 | 35 | 1300 | – |
| COc1c(Cl)cc(C(=O)NN2CCC(=O)N3CCC[C@@H](C(=O)N[C@H](C=O)CC(=O)O)N3C2=O)cc1Cl [Compound 1125] | 2300 | 55 | 9000 | – |
| CCOC(=O)C[C@@H](C=O)NC(=O)[C@@H]1CCCN2C(=O)CC[C@H](NC(=O)c3ccccc3)C(=O)N12 [Compound 2100i, [3S(1S,9S)]3-(9-Benzoylamino-6,10-dioxo-1,2,3,4,7,8,9,10-octahydro-6H-pyridazino[1,2-a][1,2]diazepine-1-carboxamido)-4-oxobutanoic acid ethyl ester] | – | – | – | inhibition at 50 mg/kg [1, 5]: 74%; inhibition at 50 mg/kg [1, 6]: 19% |
| O=C1C[C@H](NC(=O)[C@@H]2CCCN3C(=O)CC[C@H](NC(=O)c4ccccc4)C(=O)N23)[C@H](OC2Cc3ccccc3C2)O1 [Compound 2100m, [1S,9S (2R,3S)]9-Benzamido-6,10-dioxo-N-[2-(2-indanyloxy)-5-oxo-tetrahydrofuran-3-yl]-1,2,3,4,7,8,9,10-octahydro-6H-pyridazino[1,2-a][1,2]diazepine-1-carboxamide] | – | – | – | inhibition at 50 mg/kg [1, 5]: 42%; inhibition at 50 mg/kg [1, 6]: 40% |
